Results reported in paper PMC11678797, “A Repurposed Drug Selection Pipeline to Identify CNS-Penetrant Drug Candidates for Glioblastoma” (Pharmaceuticals, 2024).

Assays:
Format in all cases: in vitro ADME
[1] = target: T1, murine BCRP (Abcg2) (Mus musculus, UniProt Q7TMS5); experiment: Concentration equilibrium transport assay (CETA), MDCK cells transduced with murine Abcg2, with zosuquidar; conditions: omacetaxine 100 nM, zosuquidar 1 μM, up to 4 h
T1 construct: expressed in transfected cells; host or cells: MDCK type II (canine kidney) cells transduced with murine Abcg2 (MDCK-Bcrp1)
T1 sequence (Q7TMS5 1-657): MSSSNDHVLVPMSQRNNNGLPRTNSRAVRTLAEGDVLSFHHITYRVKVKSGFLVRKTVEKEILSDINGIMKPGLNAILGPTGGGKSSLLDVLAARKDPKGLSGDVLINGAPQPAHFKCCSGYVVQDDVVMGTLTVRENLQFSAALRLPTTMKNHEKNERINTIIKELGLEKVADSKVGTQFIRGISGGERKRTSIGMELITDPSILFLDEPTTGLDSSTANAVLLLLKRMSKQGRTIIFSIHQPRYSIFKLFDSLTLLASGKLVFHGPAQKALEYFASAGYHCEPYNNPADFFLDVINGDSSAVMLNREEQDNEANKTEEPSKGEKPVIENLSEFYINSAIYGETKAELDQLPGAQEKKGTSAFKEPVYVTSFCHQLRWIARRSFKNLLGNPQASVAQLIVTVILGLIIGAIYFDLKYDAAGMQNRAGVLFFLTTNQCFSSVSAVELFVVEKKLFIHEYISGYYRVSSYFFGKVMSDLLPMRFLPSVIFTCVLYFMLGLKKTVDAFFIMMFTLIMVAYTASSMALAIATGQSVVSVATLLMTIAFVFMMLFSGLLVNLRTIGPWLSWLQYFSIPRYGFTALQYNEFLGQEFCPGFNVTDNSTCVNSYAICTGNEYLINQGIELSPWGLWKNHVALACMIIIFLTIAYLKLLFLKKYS
Experimental: (§1) In vitro transport studies were performed using the LLC pig kidney cell line (LLC-PK1) and sub-lines transduced with murine Abcb1a (LLC-Mdr1a) or human ABCB1 (LLC-MDR1). Similarly, in vitro transport studies were conducted in the parental Madin–Darby canine kidney (MDCK) type II cell line (MDCK-Parent) and murine Abcg2 (MDCK-Bcrp1) or human ABCG2 (MDCK-BCRP) transduced sublines. Concentration equilibrium transport assays (CETA) were performed as previously described. Briefly, cells were grown on polycarbonate membrane filters (3.0 µm pores, 24 mm diameter; Costar Corning, NY, USA) for 4 days. Next, 2 mL of MEM medium containing 10% FCS and omacetaxine (100 nM) was added to both the apical and basal compartments. Then, [14C]-inulin ([…]) was added basolateral to check the membrane integrity. Zosuquidar 1 μM was added to all wells containing MDCK cells to inhibit endogenous (canine) ABCB1. […] The integrity of the membrane was checked by taking 20 μL samples from both apical and basolateral sides for radioactivity counting. […] OMA concentrations were measured using an LC-MS/MS system that consisted of an UltiMate 3000 LC System (Dionex, Sunnyvale, CA, USA) and an API 4000 mass spectrometer (Sciex, Framingham, MA, USA).

[2] = target: T2, human BCRP (ABCG2) (Homo sapiens, UniProt Q9UNQ0); experiment: Concentration equilibrium transport assay (CETA), MDCK cells transduced with human ABCG2, with zosuquidar; conditions: omacetaxine 100 nM, zosuquidar 1 μM, up to 4 h
T2 construct: expressed in transfected cells; host or cells: MDCK type II (canine kidney) cells transduced with human ABCG2 (MDCK-BCRP)
T2 sequence (Q9UNQ0 1-655): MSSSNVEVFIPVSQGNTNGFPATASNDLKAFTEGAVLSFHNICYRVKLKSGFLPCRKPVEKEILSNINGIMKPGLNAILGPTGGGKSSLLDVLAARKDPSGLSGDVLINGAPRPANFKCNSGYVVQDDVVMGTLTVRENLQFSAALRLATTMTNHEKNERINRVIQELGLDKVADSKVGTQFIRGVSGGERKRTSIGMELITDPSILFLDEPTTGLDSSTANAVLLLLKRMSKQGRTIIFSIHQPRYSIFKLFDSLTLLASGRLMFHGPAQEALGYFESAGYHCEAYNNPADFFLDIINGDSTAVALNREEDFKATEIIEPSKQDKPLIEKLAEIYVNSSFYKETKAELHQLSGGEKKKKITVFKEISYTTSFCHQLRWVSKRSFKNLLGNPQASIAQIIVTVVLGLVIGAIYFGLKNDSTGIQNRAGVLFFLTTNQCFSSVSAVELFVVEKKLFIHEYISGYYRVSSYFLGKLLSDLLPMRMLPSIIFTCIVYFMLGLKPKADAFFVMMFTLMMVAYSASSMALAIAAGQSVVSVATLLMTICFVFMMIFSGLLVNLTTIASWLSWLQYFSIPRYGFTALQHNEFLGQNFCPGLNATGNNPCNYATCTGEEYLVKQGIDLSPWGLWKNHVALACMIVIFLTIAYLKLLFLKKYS
Experimental: as §1

[3] = target: T3, human P-gp (ABCB1) (Homo sapiens, UniProt P08183); experiment: Concentration equilibrium transport assay (CETA), LLC-PK1 cells transduced with human ABCB1; conditions: omacetaxine 100 nM, up to 4 h
T3 construct: expressed in transfected cells; host or cells: LLC-PK1 (pig kidney) cells transduced with human ABCB1 (LLC-MDR1)
T3 sequence (P08183 whole entry): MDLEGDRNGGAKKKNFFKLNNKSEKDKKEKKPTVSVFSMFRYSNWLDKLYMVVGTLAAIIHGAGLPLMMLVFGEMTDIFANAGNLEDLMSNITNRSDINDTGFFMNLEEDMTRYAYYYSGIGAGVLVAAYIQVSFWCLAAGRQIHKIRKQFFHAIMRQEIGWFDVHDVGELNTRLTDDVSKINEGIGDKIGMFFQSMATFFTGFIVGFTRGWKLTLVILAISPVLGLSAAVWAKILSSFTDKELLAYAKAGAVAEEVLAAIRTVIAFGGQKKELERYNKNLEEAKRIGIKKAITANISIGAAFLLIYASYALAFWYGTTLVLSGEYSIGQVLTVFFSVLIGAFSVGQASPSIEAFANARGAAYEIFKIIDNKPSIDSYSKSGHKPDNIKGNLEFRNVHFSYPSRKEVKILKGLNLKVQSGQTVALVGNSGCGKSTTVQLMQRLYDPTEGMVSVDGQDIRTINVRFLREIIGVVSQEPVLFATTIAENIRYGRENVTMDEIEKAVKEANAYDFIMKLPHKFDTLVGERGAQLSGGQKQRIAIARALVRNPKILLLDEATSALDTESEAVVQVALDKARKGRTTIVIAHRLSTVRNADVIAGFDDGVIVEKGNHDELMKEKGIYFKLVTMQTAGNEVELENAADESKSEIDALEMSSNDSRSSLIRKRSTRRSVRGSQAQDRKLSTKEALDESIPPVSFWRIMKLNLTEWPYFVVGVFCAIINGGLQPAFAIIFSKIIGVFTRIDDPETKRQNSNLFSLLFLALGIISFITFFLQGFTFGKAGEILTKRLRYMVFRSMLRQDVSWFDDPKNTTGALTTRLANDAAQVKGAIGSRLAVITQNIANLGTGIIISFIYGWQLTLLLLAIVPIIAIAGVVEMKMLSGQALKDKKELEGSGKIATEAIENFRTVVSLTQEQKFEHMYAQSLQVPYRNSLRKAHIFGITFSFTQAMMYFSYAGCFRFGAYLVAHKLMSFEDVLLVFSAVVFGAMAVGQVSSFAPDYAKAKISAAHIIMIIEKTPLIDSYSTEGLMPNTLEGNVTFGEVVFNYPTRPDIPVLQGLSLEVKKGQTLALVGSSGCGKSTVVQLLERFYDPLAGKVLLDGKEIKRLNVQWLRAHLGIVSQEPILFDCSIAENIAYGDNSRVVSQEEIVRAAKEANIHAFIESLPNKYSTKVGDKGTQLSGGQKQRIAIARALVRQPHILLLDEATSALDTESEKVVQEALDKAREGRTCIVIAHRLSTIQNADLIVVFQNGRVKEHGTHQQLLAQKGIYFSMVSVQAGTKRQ
Experimental: as §1

substrate of BCRP (translocation between apical and basolateral compartments) [1]: not a substrate | substrate of BCRP (translocation between apical and basolateral compartments) [2]: not a substrate | substrate of P-gp (translocation basolateral to apical) [3]: weak substrate
Structure (SMILES): COC(=O)C[C@](O)(CCCC(C)(C)O)C(=O)O[C@@H]1C(OC)=C[C@]23CCCN2CCc2cc4c(cc2[C@H]13)OCO4 [OMA, Omacetaxine mepesuccinate]
